# Laboratory results taken from US20250319053A1, “INHIBITORS OF THE PEPTIDYL-PROLYL CIS/TRANS ISOMERASE (PIN1), COMBINATIONS AND USES THEREOF” (DANA-FARBER CANCER INSTITUTE, INC., priority 2021, published 2025).
# How the values were obtained:
# [1] = system: human PDAC cells (PDAC1 and PDAC2); experiment: Cell proliferation assay (CellTiter-Glo) in PDAC cells; format: cell-based; conditions: 72 hrs
# Method: Cells were seeded at a density of 5000 cells (PDAC1 and PDAC2), or 3000 cells (CAF1 and CAF2) per well in 96-well flat-bottomed plates and incubated for 24 h in culture medium. […] Control cells received dimethyl sulfoxide (DMSO) at a concentration equal to that of drug-treated cells for 72 hours. The cell viability was determined by CellTiter-Glo® 2.0 Assay (Promega) following the manufacturer's instructions.
# [2] = biological target: T1, Pin1 (Homo sapiens, UniProt Q13526); experiment: Immunoblotting for Pin1 and substrate oncoproteins in CAFs; format: cell-based; set-up: endogenous in cells; conditions: 72 hrs
# T1 sequence (Q13526 whole entry): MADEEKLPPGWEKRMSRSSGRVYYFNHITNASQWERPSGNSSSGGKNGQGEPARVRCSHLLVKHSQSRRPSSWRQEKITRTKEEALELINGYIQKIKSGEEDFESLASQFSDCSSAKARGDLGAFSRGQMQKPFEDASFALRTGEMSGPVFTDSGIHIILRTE
# Method: Cultured cells were lysed in RIPA buffer (50 mM Tris-HCl, pH 7.2, 150 mM NaCl, 1% NP40, 0.1% sodium dodecyl sulfate (SDS), 0.25% Na-deoxycholate) with freshly added phosphatase inhibitors containing 5 mM NaF and 0.2 mM sodium orthovanadate (NA3VO4), and proteinase inhibitors containing 2 μg/mL Aprotinin, 2 μg/mL Leupeptin, 2 μg/mL Pepstatin A, 1 mM DTT (dithiothreitol), 0.5 mM 4-(2-aminoethyl)-benzenesulfonyl fluoride (AEBSF), and 20 mM Chymotrypsin, and then mixed with the SDS sample buffer and loaded onto a gel after boiling for 10 minutes at 95° C. The proteins were resolved by polyacrylamide gel electrophoresis and transferred to PVDF membrane. The transferred membrane was washed three times with Tris-buffered saline containing 0.1% Tween 20 (TBST). After blocking with TBST containing 5% milk or 3% bovine serum albumin (BSA) for 1 h room temperature, the membrane was incubated with the appropriate primary antibody (diluted 1:500-1:10000) in 5% milk or 3% BSA-containing TBST at 4° C. overnight. […] After three extensive washes with TBST for a total of 30 min, the immunoblots were visualized by enhanced chemi-luminescence. Immunoblotting results were quantified using ImageJ (NIH).
# [3] = Body weight of Pin1i-2 treated non-tumor-bearing B6 mice; format: in vivo, mouse; conditions: Day 0 = 100
# Method: (§1) Table 1 is a table of blood test results together with body weight of Pin1i−2 treated non-tumor-bearing B6 mice. See also FIG. 1A-FIG. 1G, FIG. 8A-FIG. 8O, and FIG. 9A-9L. WT B6 mice (non-tumor-bearing mice) were treated with vehicle or Pin1i−2 (20, 40, or 60 mg/kg, i.p., daily) for 5 weeks, followed by examining mice body weight or the RBC, Hb, Plate, and kidney and liver function using blood tests at 3 weeks and 5 weeks (n=5).
# [4] = biological target: T1, Pin1; experiment: Immunoblotting for Pin1 and substrate oncoproteins in PDAC cells; format: cell-based; set-up: endogenous in cells; host or cells: primary human patient-derived PDAC cells (PDAC1, PDAC2); conditions: 72 hrs
# Method: Cultured cells were lysed in RIPA buffer (50 mM Tris-HCl, pH 7.2, 150 mM NaCl, 1% NP40, 0.1% sodium dodecyl sulfate (SDS), 0.25% Na-deoxycholate) with freshly added phosphatase inhibitors containing 5 mM NaF and 0.2 mM sodium orthovanadate (NA3VO4), and proteinase inhibitors containing 2 μg/mL Aprotinin, 2 μg/mL Leupeptin, 2 μg/mL Pepstatin A, 1 mM DTT (dithiothreitol), 0.5 mM 4-(2-aminoethyl)-benzenesulfonyl fluoride (AEBSF), and 20 mM Chymotrypsin, and then mixed with the SDS sample buffer and loaded onto a gel after boiling for 10 minutes at 95° C. The proteins were resolved by polyacrylamide gel electrophoresis and transferred to PVDF membrane. The transferred membrane was washed three times with Tris-buffered saline containing 0.1% Tween 20 (TBST). After blocking with TBST containing 5% milk or 3% bovine serum albumin (BSA) for 1 h room temperature, the membrane was incubated with the appropriate primary antibody (diluted 1:500-1:10000) in 5% milk or 3% BSA-containing TBST at 4° C. overnight. After incubation with the primary antibody, the membrane was washed three times with TBST for a total of 30 min followed by incubation with horseradish peroxidase conjugated goat anti-rabbit or anti-mouse IgG (diluted 1:5000) for 1 h at room temperature. After three extensive washes with TBST for a total of 30 min, the immunoblots were visualized by enhanced chemi-luminescence. Immunoblotting results were quantified using ImageJ (NIH).
# [5] = system: WT B6 mice (non-tumor-bearing mice); experiment: Blood test (CBC, liver, renal) of Pin1i-2 treated non-tumor-bearing B6 mice; format: in vivo, mouse; conditions: for CBC BA: Normal Range 0-2; for CBC EO: Normal Range 0-3.9; for CBC MO: Normal Range 0-7.5; for CBC WBC: Normal Range 1.8-10.7; for Liver Alb: Normal Range 1.95-4.74; for CBC RBC: Normal Range 6.36-9.42; for CBC NE: Normal Range 6.6-38.9; for CBC Hb: Normal Range 11-15.1; for Renal BUN: Normal Range 17-57.5; for Liver ALT: Normal Range 30-206; for CBC LY: Normal Range 55.8-91.6; for CBC PLT: Normal Range 592-2972; for Renal Cre: Normal Range <0.15
# Method: as §1
smiles,measurement,setting,value
"CC(C)(C)CN(C(=O)CCl)C1CCS(=O)(=O)C1 (stereo not shown) [Pin1i−2, sulfopin]",cell growth (proliferation assay),[1]; PDAC cells,dose-dependently suppress cell growth
same,Pin1 KO cell growth,[1]; Pin1-KO PDAC2 cells,fails to suppress Pin1 KO cell growth
same,Pin1 and its substrate oncoproteins (IB),[2],dose-dependently reduced Pin1 and its many substrate oncoproteins
same,Body weight,"[3]; 20 mg/kg i.p. daily, 3 weeks",105.5371%
same,Body weight,"[3]; 20 mg/kg i.p. daily, 5 weeks",107.5%
same,Body weight,"[3]; 40 mg/kg i.p. daily, 3 weeks",107.9%
same,Body weight,"[3]; 40 mg/kg i.p. daily, 5 weeks",106.7%
same,Body weight,"[3]; 60 mg/kg i.p. daily, 3 weeks",104.8%
same,Body weight,"[3]; 60 mg/kg i.p. daily, 5 weeks",107.3%
same,Pin1 and its substrate oncoproteins (IB),[4],ablate Pin1
same,CBC BA,"[5]; 20 mg/kg i.p. daily, 3 weeks",0.064%
same,CBC EO,"[5]; 20 mg/kg i.p. daily, 3 weeks",0.204%
same,CBC MO,"[5]; 20 mg/kg i.p. daily, 3 weeks",8.248%
same,CBC WBC,"[5]; 20 mg/kg i.p. daily, 3 weeks",7.508 K/uL
same,Liver Alb,"[5]; 20 mg/kg i.p. daily, 3 weeks",3.375 g/dL
same,CBC RBC,"[5]; 20 mg/kg i.p. daily, 3 weeks",9.424 M/uL
same,CBC NE,"[5]; 20 mg/kg i.p. daily, 3 weeks",6.5%
same,CBC Hb,"[5]; 20 mg/kg i.p. daily, 3 weeks",13.8 g/dL
same,Renal BUN,"[5]; 20 mg/kg i.p. daily, 3 weeks",31 mg/dL
same,Liver ALT,"[5]; 20 mg/kg i.p. daily, 3 weeks",41.5 U/L
same,CBC LY,"[5]; 20 mg/kg i.p. daily, 3 weeks",84.982%
same,CBC PLT,"[5]; 20 mg/kg i.p. daily, 3 weeks",530.4 K/uL
same,Renal Cre,"[5]; 20 mg/kg i.p. daily, 3 weeks",<0.15 mg/dL
same,CBC BA,"[5]; 20 mg/kg i.p. daily, 5 weeks",0.044%
same,CBC EO,"[5]; 20 mg/kg i.p. daily, 5 weeks",0.15%
same,CBC MO,"[5]; 20 mg/kg i.p. daily, 5 weeks",9.16%
same,CBC WBC,"[5]; 20 mg/kg i.p. daily, 5 weeks",7.452 K/uL
same,Liver Alb,"[5]; 20 mg/kg i.p. daily, 5 weeks",2.94 g/dL
same,CBC RBC,"[5]; 20 mg/kg i.p. daily, 5 weeks",9.228 M/uL
same,CBC NE,"[5]; 20 mg/kg i.p. daily, 5 weeks",6.134%
same,CBC Hb,"[5]; 20 mg/kg i.p. daily, 5 weeks",13.38 g/dL
same,Renal BUN,"[5]; 20 mg/kg i.p. daily, 5 weeks",30.4 mg/dL
same,Liver ALT,"[5]; 20 mg/kg i.p. daily, 5 weeks",41.4 U/L
same,CBC LY,"[5]; 20 mg/kg i.p. daily, 5 weeks",84.51%
same,CBC PLT,"[5]; 20 mg/kg i.p. daily, 5 weeks",612.6 K/uL
same,Renal Cre,"[5]; 20 mg/kg i.p. daily, 5 weeks",<0.15 mg/dL
same,CBC BA,"[5]; 40 mg/kg i.p. daily, 3 weeks",0.056%
same,CBC EO,"[5]; 40 mg/kg i.p. daily, 3 weeks",0.156%
same,CBC MO,"[5]; 40 mg/kg i.p. daily, 3 weeks",8.298%
same,CBC WBC,"[5]; 40 mg/kg i.p. daily, 3 weeks",4.76 K/uL
same,Liver Alb,"[5]; 40 mg/kg i.p. daily, 3 weeks",3.6 g/dL
same,CBC RBC,"[5]; 40 mg/kg i.p. daily, 3 weeks",8.698 M/uL
same,CBC NE,"[5]; 40 mg/kg i.p. daily, 3 weeks",6.97%
same,CBC Hb,"[5]; 40 mg/kg i.p. daily, 3 weeks",12.44 g/dL
same,Renal BUN,"[5]; 40 mg/kg i.p. daily, 3 weeks",28.8 mg/dL
same,Liver ALT,"[5]; 40 mg/kg i.p. daily, 3 weeks",41.67 U/L
same,CBC LY,"[5]; 40 mg/kg i.p. daily, 3 weeks",84.522%
same,CBC PLT,"[5]; 40 mg/kg i.p. daily, 3 weeks",449.2 K/uL
same,Renal Cre,"[5]; 40 mg/kg i.p. daily, 3 weeks",<0.15 mg/dL
same,CBC BA,"[5]; 40 mg/kg i.p. daily, 5 weeks",0.092%
same,CBC EO,"[5]; 40 mg/kg i.p. daily, 5 weeks",0.618%
same,CBC MO,"[5]; 40 mg/kg i.p. daily, 5 weeks",9.158%
same,CBC WBC,"[5]; 40 mg/kg i.p. daily, 5 weeks",5.876 K/uL
same,Liver Alb,"[5]; 40 mg/kg i.p. daily, 5 weeks",2.98 g/dL
same,CBC RBC,"[5]; 40 mg/kg i.p. daily, 5 weeks",9.714 M/uL
same,CBC NE,"[5]; 40 mg/kg i.p. daily, 5 weeks",8.926%
same,CBC Hb,"[5]; 40 mg/kg i.p. daily, 5 weeks",13.38 g/dL
same,Renal BUN,"[5]; 40 mg/kg i.p. daily, 5 weeks",26.4 mg/dL
same,Liver ALT,"[5]; 40 mg/kg i.p. daily, 5 weeks",46.2 U/L
same,CBC LY,"[5]; 40 mg/kg i.p. daily, 5 weeks",81.206%
same,CBC PLT,"[5]; 40 mg/kg i.p. daily, 5 weeks",548.8 K/uL
same,Renal Cre,"[5]; 40 mg/kg i.p. daily, 5 weeks",<0.15 mg/dL
same,CBC BA,"[5]; 60 mg/kg i.p. daily, 3 weeks",0.078%
same,CBC EO,"[5]; 60 mg/kg i.p. daily, 3 weeks",0.35%
same,CBC MO,"[5]; 60 mg/kg i.p. daily, 3 weeks",9.418%
same,CBC WBC,"[5]; 60 mg/kg i.p. daily, 3 weeks",6.712 K/uL
same,Liver Alb,"[5]; 60 mg/kg i.p. daily, 3 weeks",3.5 g/dL
same,CBC RBC,"[5]; 60 mg/kg i.p. daily, 3 weeks",9.858 M/uL
same,CBC NE,"[5]; 60 mg/kg i.p. daily, 3 weeks",12.606%
same,CBC Hb,"[5]; 60 mg/kg i.p. daily, 3 weeks",14.76 g/dL
same,Renal BUN,"[5]; 60 mg/kg i.p. daily, 3 weeks",25.4 mg/dL
same,Liver ALT,"[5]; 60 mg/kg i.p. daily, 3 weeks",50.5 U/L
same,CBC LY,"[5]; 60 mg/kg i.p. daily, 3 weeks",77.548%
same,CBC PLT,"[5]; 60 mg/kg i.p. daily, 3 weeks",700.8 K/uL
same,Renal Cre,"[5]; 60 mg/kg i.p. daily, 3 weeks",<0.15 mg/dL
same,CBC BA,"[5]; 60 mg/kg i.p. daily, 5 weeks",0.016%
same,CBC EO,"[5]; 60 mg/kg i.p. daily, 5 weeks",0.304%
same,CBC MO,"[5]; 60 mg/kg i.p. daily, 5 weeks",10.276%
same,CBC WBC,"[5]; 60 mg/kg i.p. daily, 5 weeks",5.664 K/uL
same,Liver Alb,"[5]; 60 mg/kg i.p. daily, 5 weeks",2.72 g/dL
same,CBC RBC,"[5]; 60 mg/kg i.p. daily, 5 weeks",8.958 M/uL
same,CBC NE,"[5]; 60 mg/kg i.p. daily, 5 weeks",7.656%
same,CBC Hb,"[5]; 60 mg/kg i.p. daily, 5 weeks",12.74 g/dL
same,Renal BUN,"[5]; 60 mg/kg i.p. daily, 5 weeks",22.8 mg/dL
same,Liver ALT,"[5]; 60 mg/kg i.p. daily, 5 weeks",49.2 U/L
same,CBC LY,"[5]; 60 mg/kg i.p. daily, 5 weeks",81.742%
same,CBC PLT,"[5]; 60 mg/kg i.p. daily, 5 weeks",618 K/uL
same,Renal Cre,"[5]; 60 mg/kg i.p. daily, 5 weeks",<0.15 mg/dL
